{"source": "patent US8134010B2", "about": "“Thiazole-based nitric oxide donors having aryl substituent(s) and uses thereof” (priority 2004, dated 2012)", "type_in_all_cases": "cell-based", "key": {"isolated rat aorta [1]": {"tested_on": "isolated rat aorta", "experiment": "In vitro induction of tolerance to NO releasing compounds (vasorelaxation of pre-exposed aortic rings)", "conditions": "rings pre-treated with epinephrine and then with 0.44 mM of the same compound", "description": "Aortic rings were prepared as described hereinabove, and were exposed to 0.44 mM GTN (vehicle was water:ethanol:propyleneglycol at proportional ratio of 1:1:1) for 1 hour before CCRC construction, to thereby induce tolerance to nitroglycerine. At the end of the tolerance induction period, rings were thrice washed with the path buffer (Krebs-bicrbonate) every 15 minutes for the following hour and then CCRC for vasorelaxation on GTN-induced tolerance rings were constructed for GTN (pretreated versus untreated rings, FIG. 15), in order to verify the ability to induce and measure GTN tolerance induction in vitro\nAttempted induction of tolerance to the NO-donating compounds of the present invention was performed under the same conditions as for GTN. Thus, in an exemplary experiment, rings were exposed to 0.44 mM solution of Pet-3 in the attempt to induce tolerance for Pet-3. CCRC were then measured for the vasorelaxing effect of Pet-3 on a group of rings which were pre-exposed to Pet-3 as to induce tolerance to Pet-3, and for an untreated control group. The above protocol was repeated with Pet-2, Pet-7, Pet-8, Pet-12, Pet-24, Pet-43, Pet-149 and Pet-152."}, "isolated rat aorta [2]": {"tested_on": "isolated rat aorta", "experiment": "Cross-tolerance studies on aortic rings (GTN / Pet-12 pre-treatment)", "conditions": "aorta pre-treated with GTN", "description": "Cross-tolerance studies were conducted using the same technique described above for measuring vasorelaxation of aortic rings from rats. Two groups of aortic rings samples were pre-treated with GTN, then one group was measured for vasorelaxation by GTN and the second group for vasorelaxation by Pet-12, an exemplary NO-donor according to the present invention. For the opposite cross-tolerance studies, two groups of aortic rings samples were pre-treated with Pet-12, then one group was measured for vasorelaxation by GTN and the second group for vasorelaxation by Pet-12."}, "[3]": {"tested_on": "c-GMP in slices of thoracic aorta of rats", "experiment": "Cyclic-GMP measurement in aortic rat tissue (radioimmunoassay)", "description": "GTN (10^−6 M) was added to the chamber and, 1 minute after exposure to the drug, rings (usually 3-5) were taken, wrapped with aluminum foil and immediately frozen in liquid nitrogen for storage. Control sample group was treated with the vehicle solution only. At the time of analysis, rings were thawed, blotted over a dry gauzed and weighted. A known weight of tissue was homogenized in 2 ml ice-cold modified Hank's balanced salt solution containing (in gram/liter) NaCl 8; KCl 0.4; glucose 1; KH2PO4 0.06; Na2HPO4 0.047; Phenol red 0.017 and further containing 25 mM EDTA (disodium salt). The homogenate was centrifuged at 4000 g (force units) for 10 minutes at 2-4° C. and the supernatant was thereafter transferred into fresh pre-cooled test tube containing 1 ml of acetonitrile. The tubes were vortex mixed for a few seconds and subsequently centrifuged at 4000 g for 5 minutes at 2-4° C., to remove the precipitated protein. Each supernatant was transferred into a clean test tube and evaporated to dryness under a stream of nitrogen at 55° C. The dry residue was reconstituted with 10 volumes of Tris-EDTA buffer pH 7.5 (0.05 M Tris containing 4 mM EDTA). Aliquots of 100 μl of the reconstituted solution in duplicate were used for c-GMP measurements using Amersham RIA kit, as is described in Haj-Yehia & Benet [Pharmacology, 1995, 273, 1, pp. 94-100]. Standard curves were plotted with six concentrations (0, 0.5, 1, 2, 4 and 8 pmoles of c-GMP per tube).\nThe NO-tolerance effect of GTN and NO-donor compounds according to the present invention was measured by following the production of c-GMP in slices of thoracic aorta of rats. Thus, the production of c-GMP was measured as described in the methods section above for the reference NO-donor compound GTN, and for the NO-donors of the present invention Pet-2, Pet-3, Pet-7, Pet-8, Pet-10, Pet-12, Pet-24, Pet-59, Pet-106, Pet-107, Pet-120, Pet-147, Pet-149, Pet-152, Pet-154 and Pet-155."}}, "note": "“Also recorded” adds a separate entry of the source.", "data": [{"smiles": "Cc1nc(-c2ccc([N+](=O)[O-])cc2)sc1CCO[N+](=O)[O-]", "note": "[Pet-120, 4-Methyl-5-(2-nitrooxy-ethyl)-2-(4-nitro-phenyl)-thiazole]", "values": [{"measurement": "tolerance induction in vitro (vasorelaxation, pre-treated versus control rings)", "setting": "isolated rat aorta [1]", "result": "absence of tolerance induction; also recorded: lack of tolerance inducement"}, {"measurement": "vasorelaxation in rings made tolerant to GTN (cross-tolerance)", "setting": "isolated rat aorta [2]", "result": "can even induce vasorelaxation in rat aorta of rats after tolerance has been induced therein by chronic use of GTN"}, {"measurement": "accumulation of cyclic-GMP as compared with GTN", "setting": "[3]; isolated rat aorta, radioimmunoassay", "result": "increased levels of cGMP"}, {"measurement": "cGMP Post-infusion", "setting": "[3]; rat thoracic aorta, post-infusion (repeated treatment)", "result": "133 ± 12", "unit": "pmol/g tissue"}]}]}
